A word on the Kd: it is the constant that tells how readily two partners part at equilibrium. Low readings indicate a tighter complex, high ones a looser complex.

B1: Macrocyclic peptide of Example 2-19 (SEQ ID No. 37) (peptide)
peptide: {CH2CO}-[NMeQ][MeHseMe]D[NMeQ][Phe(4-COOH)][Thr(Me)]I[YaeCOpipzaa][NMe2Nal]G[3Pal(6-Ph)][NMeC]-NH2
modifications: thioether N-12
SMILES: CC[C@H](C)[C@@H]1NC(=O)[C@H]([C@@H](C)OC)NC(=O)[C@H](Cc2ccc(C(=O)O)cc2)NC(=O)[C@H](CCC(N)=O)N(C)C(=O)[C@H](CC(=O)O)NC(=O)[C@H](CCOC)N(C)C(=O)[C@H](CCC(N)=O)N(C)C(=O)CSC[C@@H](C(N)=O)N(C)C(=O)[C@H](Cc2ccc(-c3ccccc3)nc2)NC(=O)CNC(=O)[C@H](Cc2ccc3ccccc3c2)N(C)C(=O)[C@H](Cc2ccc(OCCNC(=O)N3CCN(CC(=O)O)CC3)cc2)NC1=O

Starred links: 1 amine or outer side, 2 acyl side, 3 side chain; linkers in the order of their positions; H or OH if unused. Positions of bridges follow the written chain, without caps; N, C: chain ends. Non-standard residues stand in square brackets, D forms with d. Residues, ends and D or L forms follow the SMILES beside them. Groups on a side chain read outwards from the residue. *: point of attachment. YaeCOpipzaa = 2-amino-3-(4-(2-(4-(carboxymethyl)piperazine-1-carboxamido)ethoxy)phenyl)propanoic acid, O=C(NCCOc1ccc(C[C@H](N[*:1])C(=O)[*:2])cc1)N1CCN(CC(=O)[*:3])CC1; Thr(Me) = O-methyl threonine, (3R)-2-amino-3-methoxybutanoic acid, CO[C@H](C)[C@H](N[*:1])C(=O)[*:2]; MeHseMe = N-methyl-O-methyl-L-homoserine, COCC[C@@H](C(=O)[*:2])N(C)[*:1]; Phe(4-(1-Me-pyrazol-4-yl)) = Cn1cc(-c2ccc(C[C@H](N)C(=O)O)cc2)cn1; NMeAla(isoquinolin-7-yl) = CN[C@@H](Cc1ccc2ccncc2c1)C(=O)O; DOTA = O=C(O)CN1CCN(CC(=O)O)CCN(CC(=O)*)CCN(CC(=O)O)CC1; CH2CON(CH2CH2)2NCH2COOH = O=C(O)CN1CCN(C(=O)C*)CC1; 3Pal(6-Ph) = N[C@@H](Cc1ccc(-c2ccccc2)nc1)C(=O)O; Phe(4-COOH) = N[C@@H](Cc1ccc(C(=O)O)cc1)C(=O)O; Phe(4-CH2NH2) = NCc1ccc(C[C@H](N)C(=O)O)cc1; Piperazinyl(4-CH2COOH) = O=C(O)CN1CCN(*)CC1; NMe2Nal = CN[C@@H](Cc1ccc2ccccc2c1)C(=O)O; AEF = NCCOc1ccc(C[C@H](N)C(=O)O)cc1; NMeI = CC[C@H](C)[C@H](NC)C(=O)O; NMeQ = CN[C@@H](CCC(N)=O)C(=O)O; NMehSer = CN[C@@H](CCO)C(=O)O; NMeK = CN[C@@H](CCCCN)C(=O)O; NMeC = CN[C@@H](CS)C(=O)O; Carboxymethyl = O=C(O)C*; CO = O=C([*:1])[*:2]

For the first experiment, the target named is T1, Human Glypican3-Fc (ACRO Biosystems, GP3-H5258) (human, UniProt P51654 25-559).
T1 construct: Bought fusion protein, captured in Methods B-2, B-3 and B-4; Catalogue number is printed only in Method B-2; not shown: Fc part of the bought fusion
Kind of experiment: SPR (Biacore T200), Method B-2: human Glypican3-Fc captured by anti-human Fc on CM3 chip, peptide as analyte.
Details: not given
As to the method:
A CM3 sensor chip (Cytiva) was inserted into a Biacore T200 (Cytiva), primed three times with a running buffer: HBS-P-+, pH 7.4 (Cytiva), and equilibrated at a flow rate of 30 μL/min. Using the Anti-Fc Capture Kit (Cytiva), 50 LL each of 60 mM EDC solution (Cytiva) and 650 mM NHS solution (Cytiva) were mixed, and then reacted at a flow rate of 10 μL/min for 420 seconds, 150 μL of […] Anti-human IgG (Fc) Antibody solution was prepared by diluting with 10 mM acetic acid solution (pH 5.0), reacted at a flow rate of 10 μL/min for 420 seconds, and immobilized on a CM3 sensor chip. After immobilization, 1.0 M ethanolamine aqueous solution (Cytiva) was allowed to react for 420 seconds at a flow rate of 10 μL/min for capping. Human Glypican3-Fc (ACRO Biosystems, GP3-H5258) was allowed to react for 60 seconds at a flow rate of 10 μL/min. After capturing human Glypican3-Fc, a peptide solution prepared to 10 mM in DMSO solution was diluted with a running buffer to a final concentration of 10 μM. […] Using the above samples, peptide kinetics for Glypican3 was obtained by SPR measurement. Kinetics evaluation of Glypican3 was performed by SPR measurements at a flow rate of 10 μL/min. setting the association time to 120 seconds and the disassociation time to 600 seconds.
The obtained data by Method B-1, Method B-2, Method B-3 and Method B-4 were analyzed by follow. Single Cycle Kinetics was used as the kinetics evaluation model, and curve fitting was performed using Biacore T200 Evaluation Software Version 3.0 (Cytiva).
On the technique in general: SPR reads the build-up and loss of mass on a sensor chip optically.
For B1, the affinity, expressed as Kd, was 0.5 nM.

The next experiment addresses Human Glypican3-Fc (Homo sapiens, UniProt P51654). Kind of experiment: SPR binding to Glypican-3, Method B-2 (Glypican3-Fc captured by anti-human IgG (Fc) antibody on CM3 chip). To be noted: SPR method B-2. As for the experimental part: A CM3 sensor chip (Cytiva) was inserted into a Biacore T200 (Cytiva), primed three times with a running buffer: HBS-P-+, pH 7.4 (Cytiva), and equilibrated at a flow rate of 30 μL/min. Using the Anti-Fc Capture Kit (Cytiva), 50 LL each of 60 mM EDC solution (Cytiva) and 650 mM NHS solution (Cytiva) were mixed, and then reacted at a flow rate of 10 μL/min for 420 seconds, 150 μL of […] Anti-human IgG (Fc) Antibody solution was prepared by diluting with 10 mM acetic acid solution (pH 5.0), reacted at a flow rate of 10 μL/min for 420 seconds, and immobilized on a CM3 sensor chip. After immobilization, 1.0 M ethanolamine aqueous solution (Cytiva) was allowed to react for 420 seconds at a flow rate of 10 μL/min for capping. Human Glypican3-Fc (ACRO Biosystems, GP3-H5258) was allowed to react for 60 seconds at a flow rate of 10 μL/min. After capturing human Glypican3-Fc, a peptide solution prepared to 10 mM in DMSO solution was diluted with a running buffer to a final concentration of 10 μM. After that, 5 serial dilution series (100 nM, 50 nM, 25 nM, 10 nM, 5 nM) of peptide solutions were prepared. Using the above samples, peptide kinetics for Glypican3 was obtained by SPR measurement. Kinetics evaluation of Glypican3 was performed by SPR measurements at a flow rate of 10 μL/min. setting the association time to 120 seconds and the disassociation time to 600 seconds.
The obtained data by Method B-1, Method B-2, Method B-3 and Method B-4 were analyzed by follow. Single Cycle Kinetics was used as the kinetics evaluation model, and curve fitting was performed using Biacore T200 Evaluation Software Version 3.0 (Cytiva). The obtained sensorgram was subjected to curve fitting by the method of least squares and obtained KD values of the macrocyclic peptides in this disclosure for Glypican 3 protein are shown in Table 18.
In turn, `CC[C@H](C)[C@@H]1NC(=O)[C@H](Cc2ccc(C(=O)O)cc2)NC(=O)[C@H](CCC(N)=O)N(C)C(=O)[C@H](CC(=O)O)NC(=O)[C@H](CCC(N)=O)N(C)C(=O)[C@H](CCC(N)=O)N(C)C(=O)CSC[C@@H](C(N)=O)N(C)C(=O)[C@H](Cc2ccc(-c3cnn(C)c3)cc2)NC(=O)CNC(=O)[C@H](Cc2ccc3ccccc3c2)N(C)C(=O)[C@H](Cc2ccc(OCCNC(=O)CN3CCN(CC(=O)O)CCN(CC(=O)O)CCN(CC(=O)O)CC3)cc2)NC(=O)[C@H]([C@@H](C)CC)NC1=O` [Lu-C-28] ({CH2CO}-[NMeQ][NMeQ]D[NMeQ][Phe(4-COOH)]II[AEF](DOTA)[NMe2Nal]G[Phe(4-(1-Me-pyrazol-4-yl))][NMeC]-NH2; thioether N-12) came in with a Kd of 1.8 nM.
Regarding `CC[C@H](C)[C@@H]1NC(=O)[C@H]([C@@H](C)OC)NC(=O)[C@H](Cc2ccc(C(=O)O)cc2)NC(=O)[C@H](CCC(N)=O)N(C)C(=O)[C@H](CC(=O)O)NC(=O)[C@H]([C@@H](C)CC)N(C)C(=O)[C@H](CCCCNC(=O)CN2CCN(CC(=O)O)CCN(CC(=O)O)CCN(CC(=O)O)CC2)N(C)C(=O)CSC[C@@H](C(N)=O)N(C)C(=O)[C@H](Cc2ccc(-c3ccccc3)nc2)NC(=O)CNC(=O)[C@H](Cc2ccc3ccncc3c2)N(C)C(=O)[C@H](Cc2ccc(OCC(=O)O)cc2)NC1=O` [Lu-C-30] ({CH2CO}-[NMeK](DOTA)[NMeI]D[NMeQ][Phe(4-COOH)]T(Me)IY(Carboxymethyl)[NMeAla(isoquinolin-7-yl)]G[3Pal(6-Ph)][NMeC]-NH2; thioether N-12), the Kd came out at 0.7 nM.
Still for that read-out and setting: as for `CC[C@H](C)[C@@H]1NC(=O)[C@H]([C@@H](C)OC)NC(=O)[C@H](Cc2ccc(C(=O)O)cc2)NC(=O)[C@H](CCC(N)=O)N(C)C(=O)[C@H](CC(=O)O)NC(=O)[C@H](CCOC)N(C)C(=O)[C@H](CCC(N)=O)N(C)C(=O)CSC[C@@H](C(N)=O)N(C)C(=O)[C@H](Cc2ccc(-c3ccccc3)nc2)NC(=O)CNC(=O)[C@H](Cc2ccc3ccccc3c2)N(C)C(=O)[C@H](Cc2ccc(CNC(=O)N3CCN(CC(=O)O)CC3)cc2)NC1=O` [Conjugate 2-20] ({CH2CO}-[NMeQ][NMehSer](Me)D[NMeQ][Phe(4-COOH)]T(Me)I[Phe(4-CH2NH2)]([CO-Piperazinyl(4-CH2COOH)])[NMe2Nal]G[3Pal(6-Ph)][NMeC]-NH2; thioether N-12), the figure is 0.7 nM; as for `CC[C@H](C)[C@@H]1NC(=O)[C@H](Cc2ccc(C(=O)O)cc2)NC(=O)[C@H](CCC(N)=O)N(C)C(=O)[C@H](CC(=O)O)NC(=O)[C@H]([C@@H](C)CC)N(C)C(=O)[C@H](CCCCNC(=O)[C@H](Cc2c[nH]cn2)NC(=O)CN2CCN(CC(=O)O)CCN(CC(=O)O)CCN(CC(=O)O)CC2)N(C)C(=O)CSC[C@@H](C(N)=O)N(C)C(=O)[C@H](Cc2ccc(-c3ccccc3)nc2)NC(=O)CNC(=O)[C@H](Cc2ccc3ccncc3c2)N(C)C(=O)[C@H](Cc2ccc(OCC(=O)O)cc2)NC(=O)[C@H]([C@@H](C)CC)NC1=O` [Lu-C-34] ({CH2CO}-[NMeK]([His-DOTA])[NMeI]D[NMeQ][Phe(4-COOH)]IIY(Carboxymethyl)[NMeAla(isoquinolin-7-yl)]G[3Pal(6-Ph)][NMeC]-NH2; thioether N-12), 0.8 nM.
Same read-out and setting: next, `CC[C@H](C)[C@@H]1NC(=O)[C@H]([C@@H](C)OC)NC(=O)[C@H](Cc2ccc(C(=O)O)cc2)NC(=O)[C@H](CCC(N)=O)N(C)C(=O)[C@H](CC(=O)O)NC(=O)[C@H](CCOC)N(C)C(=O)[C@H](CCC(N)=O)N(C)C(=O)CSC[C@@H](C(N)=O)N(C)C(=O)[C@H](Cc2ccc(-c3ccccc3)nc2)NC(=O)CNC(=O)[C@H](Cc2ccc3ccccc3c2)N(C)C(=O)[C@H](Cc2ccc(OCC(=O)N3CCN(CC(=O)O)CC3)cc2)NC1=O` [Conjugate 2-22] ({CH2CO}-[NMeQ][NMehSer](Me)D[NMeQ][Phe(4-COOH)]T(Me)IY(CH2CON(CH2CH2)2NCH2COOH)[NMe2Nal]G[3Pal(6-Ph)][NMeC]-NH2; thioether N-12): 0.8 nM.

The values are drawn from US20260241049A1, “Radiopharmaceutical Compositions Targeting Glypican-3 and Uses Thereof” (RayzeBio, Inc., priority 2023, published 2026).
